{"source": "patent US20060068011A1", "about": "“Simultaneous encapsulation technique for use in pharmaceutical compositions” (Wyeth, priority 2004, published 2006)", "origin": "cited, not measured here", "data": [{"smiles": "COc1ccccc1OCC(O)CO", "note": "(stereo not shown) [Guaifenesin, guaifenesin]", "values": [{"measurement": "solubility in water", "result": "sparingly water soluble"}]}]}
